Data from patent US8008250B2, “Macrocyclic compounds and compositions useful as BACE inhibitors” (Novartis AG, priority 2005, dated 2011).

Tests used:
human BACE = target: T1, human BACE (Homo sapiens, UniProt P56817); assay: Test 1: Inhibition of Human BACE; assay type: biochemical; conditions: test not named; sentence follows 'at least one of the above-indicated tests'; assigned to BACE Test 1
T1 construct: Recombinant BACE (extracellular domain, expressed in baculovirus and purified using standard methods); made in house
Method: Test 1: Inhibition of Human BACE
Recombinant BACE (extracellular domain, expressed in baculovirus and purified using standard methods) at 6 nM concentration is incubated with the test compound at various concentrations for 1 hour at room temperature in 100 mM acetate buffer, pH 4.5, containing 0.1% CHAPS. Synthetic peptide substrate Mca-Ser-Glu-Val-Asn-Leu-Asp-Ala-Glu-Phe-Lys(DNP) (SEQ ID NO: 1) is added to a final concentration of 3 μM and the increase in fluorescence is recorded at excitation of 325 nm and emission at 400 nm in a microplate spectro-fluorimeter for 20 minutes in 1-minute intervals. IC50 values are calculated from percentage of inhibition of BACE-activity as a function of the test compound concentration.

T1 sequence (P56817 46-457 limits assumed): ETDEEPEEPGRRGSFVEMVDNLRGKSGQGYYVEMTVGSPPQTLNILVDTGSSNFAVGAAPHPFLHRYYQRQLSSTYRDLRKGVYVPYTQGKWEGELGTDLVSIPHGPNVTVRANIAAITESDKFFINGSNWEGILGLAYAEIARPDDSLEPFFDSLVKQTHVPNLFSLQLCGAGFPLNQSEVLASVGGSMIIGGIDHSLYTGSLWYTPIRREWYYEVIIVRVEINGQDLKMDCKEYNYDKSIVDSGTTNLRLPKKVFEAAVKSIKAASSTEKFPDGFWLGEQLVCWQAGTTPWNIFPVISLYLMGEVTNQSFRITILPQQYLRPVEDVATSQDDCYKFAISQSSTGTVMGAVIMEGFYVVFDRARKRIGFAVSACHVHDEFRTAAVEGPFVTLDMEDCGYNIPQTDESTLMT

melting point	IC50 (human BACE)	SMILES
132 to 135 °C		CC(C)c1cccc(CNC[C@@H](O)[C@@H]2Cc3cccc(c3)OCCCCCC(=O)N(C)[C@@H](C)C(=O)N2)c1 [Example 1, (10S,13S)-13-[(R)-1-Hydroxy-2-(3-isopropyl-benzylamino)-ethyl]-9,10-dimethyl-2-oxa-9,12-diaza-bicyclo[13.3.1]nonadeca-1(19),15,17-triene-8,11-dione]
	250 nM	CC(C)c1cccc(CNC[C@@H](O)[C@@H]2Cc3cccc(c3)CCCCCCC(=O)N(C)[C@@H](C)C(=O)N2)c1 [Example 4, (3S,6S)-3-[(R)-1-Hydroxy-2-(3-isopropyl-benzylamino)-ethyl]-6,7-dimethyl-4,7-diaza-bicyclo[13.3.1]nonadeca-1(18),15(19),16-triene-5,8-dione]
148 to 150 °C		CC(C)c1cccc(CNC[C@@H](O)[C@@H]2Cc3cccc(c3)OCCCCS(=O)(=O)C[C@@H](C)C(=O)N2)c1 [Example 6, (9S,12S)-12-[(R)-1-Hydroxy-2-(3-isopropyl-benzylamino)-ethyl]-9-methyl-7,7-dioxo-2-oxa-7lambda*6*-thia-11-aza-bicyclo[12.3.1]octadeca-1(18),14,16-trien-10-one]
